Source: patent US6333422A, “Thermosensitive cyclotriphosphazene-platinum complex conjugate, its preparation method and anticancer agent containing the same” (Korea Institute of Science and Technology, priority 2000, dated 2001)

Key:
[1] = Lower critical solution temperature (LCST, cloud point) by UV/VIS spectrophotometer; assay type: physicochemical
Text: Thermosensitive polymers in the present invention refer to the polymers that can be solubilized in water at low temperatures but precipitates above a certain critical temperature due to the rapid decrease of their water-solubility. When such a phase transition is reversible, the phase transition temperature is called a lower critical solution temperature(LCST) or a cloud point. Below LCST, the hydrogen bonding between the polymer-water molecules is stronger than the hydrophobic interaction between the polymer-polymer molecules. As the temperature increases, however, the hydrogen bonding between the polymer-water molecules weakens whereas the hydrophobic interaction between the polymer-polymer molecules increases resulting in the precipitation of polymers in aqueous solution.
Elemental analysis of carbon, hydrogen, nitrogen in the compounds of the present invention was performed in the Special Analysis Center at KIST by using carbon, hydrogen and nitrogen analyzer (Perkin Elmer), and phosphorous and platinum analysis was performed using Polyscan 61E ICP. Hydrogen and phosphorous nuclear magnetic resonance spectra were obtained using Varian to Gemini-300, and LCST was measured by using Perkin-Elmer Lamda 18 UV/VIS spectrophotometer.

[2] = system: mouse leukemia L1210 cell line; experiment: In vitro cell growth inhibition of mouse leukemia L1210 cells (trypan blue dye exclusion); assay type: cell-based; conditions: viable cell number after 24, 48 and 72 hours, read-out: ED50 (concentration exhibiting 50% of cell growth inhibition)
Protocol: 1. Determination of in vitro activity
(§1) (2) Cancer cell line: mouse leukemia L1210 cell line
After adding the samples each serially diluted by logarithmic dose to the cells, cells were cultured in an incubator at 37° C. and under 5% CO2 atmosphere.
The viable cell number was determined after 24, 48 and 72 hours by using trypan blue dye exclusion test.

[3] = system: mouse leukemia L1210 cell line; experiment: In vivo (i.p.) activity: survival of BDF1 mice implanted i.p. with leukemia L1210 cells
Protocol: 2. Determination of in vivo (i.p.) activity
(1) Samples: Example 2, Example 6, Example 7 and Example 11
as §1
(3) Experimental method: The leukemia L1210 cells(1×10^5 cells/0.1 ml) obtained from DBA/2 donor mice were injected intraperitoneally to the BDF1 mice (6-8 weeks old, 8 mice per group). The samples were either dissolved in PBS solution or suspended in 0.5% Tween 80 depending on their solubility. These sample solutions were administered via intraperitoneal injection once a day for 5 consecutive days or at day 1, 5, and 9 after the cancer cell implantation at variable dosages. The survival rate was determined by observing the mice each day. By comparing with the average survival time of the control group (where no chemical treatment was performed), the percent average increase in the survival time(T/C, %) was calculated to determine the anticancer activity.

[4] = M. J. Cleare, Biochimie 60, 835 (1978); cited from earlier work

| Molecule | Lower critical solution temperatures [1] | IC50 [2] [nM] | also measured |
| --- | --- | --- | --- |
| {NP[(OCH2 CH2)2 OC3 H7 ][L-Asp.Pt(dach)]}3 [Example 9] | 22.0 °C | – | – |
| {NP[(OCH2 CH2)2 OC2 H5 ][L-Mal.Pt(dach)]}3 [Example 5] | 39.0 °C | – | – |
| {NP[(OCH2 CH2)2 OCH3 ][L-Asp.Pt(dach)]}3 [Example 2] | 92.0 °C | 400 | T/C (survival time vs control) ([3]; dose 30 mgkg^-1): 217.3%; T/C (survival time vs control) ([3]; dose 60 mgkg^-1): > 293.8%; T/C (survival time vs control) ([3]; dose 90 mgkg^-1): > 511.0% |
| {NP[(OCH2 CH2)2 OCH3 ][L-Asp.Pt(dmpda]}3 [Example 1] | 98.0 °C | – | – |
| {NP[(OCH2 CH2)2 OC4 H9 ][L-Asp.Pt(dach)]}3 [Example 10] | 12.0 °C | – | – |
| {NP[(OCH2 CH2)12 OCH3 ][L-Asp.Pt(dach)]}3 [Example 12] | above 100 °C | – | – |
| {NP[(OCH2 CH2)2 OCH3 ][L-Glu.Pt(dach)]}3 [Example 4] | 82.0 °C | – | – |
| {NP[(OCH2 CH2)2 OC2 H5 ][L-Asp.Pt(dmach)]}3 [Example 8] | 35.0 °C | – | – |
| {NP[(OCH2 CH2)2 OC2 H5 ][L-Asp.Pt(dmpda)]}3 [Example 6] | 46.5 °C | – | T/C (survival time vs control) ([3]; dose 30 mgkg^-1): 146.1%; T/C (survival time vs control) ([3]; dose 60 mgkg^-1): 162.0% |
| {NP[(OCH2 CH2)2 OC2 H5 ][L-Asp.Pt(dach)]}3 [Example 7] | 42.0 °C | 400 | T/C (survival time vs control) ([3]; dose 40 mgkg^-1): 200.8%; T/C (survival time vs control) ([3]; dose 60 mgkg^-1): 226.7%; T/C (survival time vs control) ([3]; dose 80 mgkg^-1): > 271.7% |
| {NP[(OCH2 CH2)2 OCH3 ][L-Asp.Pt(dmach)]}3 [Example 3] | 74.5 °C | – | – |
| {NP[(OCH2 CH2)7 OCH3 ][L-Asp.Pt(dach)]}3 [Example 11] | 84.0 °C | 200 | T/C (survival time vs control) ([3]; dose 30 mgkg^-1): 197.0%; T/C (survival time vs control) ([3]; dose 60 mgkg^-1): 229.2%; T/C (survival time vs control) ([3]; dose 90 mgkg^-1): 204.2% |
| N.N.O=C([O-])C1(C(=O)[O-])CCC1.[Pt+2] [Carboplatin, reference compound] | – | 5900 | LD50 [4]: 180 mg/kg; T/C (survival time vs control) ([3]; dose 40 mgkg^-1): 168.0% |
| N.N.[Cl][Pt][Cl] [Cisplatin, reference compound] | – | 700 | T/C (survival time vs control) ([3]; dose 4 mgkg^-1): 163.0% |
